# Like-named read-outs stand apart in the source and are kept apart here.
# Legend:
# [1] = biological target: T1, human GLP-1 receptor (hGLP-1R) (Homo sapiens, UniProt P43220); assay: [125I]-GLP-1 binding, SPA with membranes of HEK293 cells expressing hGLP-1R
# T1 construct: expressed in transfected cells; crude membranes
# hGIPR = biological target: T2, hGIPR (Homo sapiens, UniProt P48546); assay: Functional cAMP formation (HTRF) in HEK-293 clonal cells expressing hGIPR, 0.1% bovine casein, without or with 1.0% human serum albumin; type: cell-based; settings: for EC50: geometric mean
# T2 construct: expressed in transfected cells
# T2 sequence (P48546 22-466): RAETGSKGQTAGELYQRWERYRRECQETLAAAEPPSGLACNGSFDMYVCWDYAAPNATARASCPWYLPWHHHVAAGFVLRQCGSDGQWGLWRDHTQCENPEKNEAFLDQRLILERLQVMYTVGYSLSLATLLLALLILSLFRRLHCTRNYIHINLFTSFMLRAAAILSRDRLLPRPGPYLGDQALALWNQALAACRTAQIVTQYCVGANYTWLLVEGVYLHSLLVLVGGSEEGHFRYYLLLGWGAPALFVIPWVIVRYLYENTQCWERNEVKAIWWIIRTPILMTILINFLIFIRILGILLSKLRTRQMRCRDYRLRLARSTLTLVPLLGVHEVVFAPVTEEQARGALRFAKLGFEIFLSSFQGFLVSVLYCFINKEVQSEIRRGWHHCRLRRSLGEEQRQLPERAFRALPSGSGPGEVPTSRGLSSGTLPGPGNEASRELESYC
# In short: (§1)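 Cells were stimulated with peptide for 30 min at 37° C, then lysed in buffer carrying cAMP-d2 and anti-cAMP Eu3+-cryptate for a competitive HTRF read after at least 60 min at room temperature. The 665/620 nm ratio was converted to nM cAMP against a standard curve.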
# hGCGR = biological target: T3, hGCGR (Homo sapiens, UniProt P47871); assay: Functional cAMP formation (HTRF) in HEK-293 clonal cells expressing hGCGR, 0.1% bovine casein, without or with 1.0% human serum albumin; type: cell-based
# T3 construct: expressed in transfected cells
# In short: as §1
# hGLP-1R = hGLP-1R (Homo sapiens, UniProt P43220); assay: Functional cAMP formation (HTRF) in HEK-293 clonal cells expressing hGLP-1R, 0.1% bovine casein, without or with 1.0% human serum albumin; type: cell-based; design: expressed in transfected cells; settings: for Emax: arithmetic mean; for EC50: geometric mean
# In short: as §1
# [2] = human GLP-1R, geometric mean (SEM, n), read-out: Binding Affinity Ki, nM (SEM, n) hGLP-1R
# [3] = 0.1% bovine casein and 1.0% human serum albumin, 37° C., geometric mean, read-out: hGCGR EC50, nM (SEM, n)
# [4] = cAMP, incubated at 37° C., 0.1% bovine casein (no human serum albumin), geometric mean, read-out: hGCGR EC50, nM (SEM, n)
# T3 sequence (P47871 26-477): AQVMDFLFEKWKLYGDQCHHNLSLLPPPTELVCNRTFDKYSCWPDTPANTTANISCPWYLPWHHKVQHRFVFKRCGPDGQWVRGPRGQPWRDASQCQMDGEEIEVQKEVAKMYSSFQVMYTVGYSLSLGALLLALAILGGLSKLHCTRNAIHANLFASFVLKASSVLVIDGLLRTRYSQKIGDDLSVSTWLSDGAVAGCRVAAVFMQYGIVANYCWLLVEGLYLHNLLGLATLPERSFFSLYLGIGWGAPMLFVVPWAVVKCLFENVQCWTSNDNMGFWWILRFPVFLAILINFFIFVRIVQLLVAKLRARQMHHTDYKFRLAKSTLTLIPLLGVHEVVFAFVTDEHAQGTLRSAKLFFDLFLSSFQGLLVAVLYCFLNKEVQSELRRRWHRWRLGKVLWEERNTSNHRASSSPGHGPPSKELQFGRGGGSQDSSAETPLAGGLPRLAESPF
# T1 sequence (P43220 24-463): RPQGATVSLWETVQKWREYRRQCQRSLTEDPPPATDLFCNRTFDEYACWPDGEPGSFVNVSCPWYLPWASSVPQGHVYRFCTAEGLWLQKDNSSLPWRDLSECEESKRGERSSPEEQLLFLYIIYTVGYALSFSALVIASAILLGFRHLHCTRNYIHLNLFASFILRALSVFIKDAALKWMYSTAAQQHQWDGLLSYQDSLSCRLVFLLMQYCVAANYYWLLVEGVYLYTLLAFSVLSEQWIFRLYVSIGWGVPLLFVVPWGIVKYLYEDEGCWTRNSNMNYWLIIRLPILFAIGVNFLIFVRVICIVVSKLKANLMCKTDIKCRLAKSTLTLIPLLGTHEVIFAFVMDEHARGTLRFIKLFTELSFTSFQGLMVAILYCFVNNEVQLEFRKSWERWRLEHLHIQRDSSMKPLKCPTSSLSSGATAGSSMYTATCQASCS
# Sequence of hGLP-1R (P43220 24-463): as above
compound,measurement,setting,value
CC[C@H](C)[C@H](NC(=O)[C@H](CC(C)C)NC(=O)[C@](C)(Cc1ccc(O)cc1)NC(=O)[C@H](CCCCNC(=O)COCCOCCNC(=O)CC[C@H](NC(=O)COCCOCCNC(=O)CC[C@H](NC(=O)CCCCCCCCCOc1ccc(C(=O)O)cc1)C(=O)O)C(=O)O)NC(=O)[C@@H](NC(=O)[C@H](Cc1ccccc1)NC(=O)[C@H](CCCN)NC(=O)C(C)(C)NC(=O)[C@H](CCC(N)=O)NC(=O)[C@H](C)NC(=O)[C@H](CCC(N)=O)NC(=O)[C@H](CCCN)NC(=O)[C@H](CC(=O)O)NC(=O)[C@H](CC(C)C)NC(=O)[C@](C)(CC(C)C)NC(=O)[C@@H](NC(=O)C(C)(C)NC(=O)[C@H](Cc1ccncc1)NC(=O)[C@H](CC(=O)O)NC(=O)[C@H](CO)NC(=O)[C@@H](NC(=O)[C@](C)(Cc1ccccc1F)NC(=O)[C@@H](NC(=O)CNC(=O)[C@H](CCC(=O)O)NC(=O)C(C)(C)NC(=O)[C@@H](N)Cc1ccc(O)cc1)[C@@H](C)O)[C@@H](C)O)[C@@H](C)CC)[C@@H](C)CC)C(=O)N[C@@H](CCCCNC(=O)COCCOCCNC(=O)CC[C@H](NC(=O)COCCOCCNC(=O)CC[C@H](NC(=O)CCCCCCCCCOc1ccc(C(=O)O)cc1)C(=O)O)C(=O)O)C(=O)NCC(=O)NCC(=O)N1CCC[C@H]1C(=O)N[C@@H](CO)C(=O)N[C@@H](CO)C(=O)NCC(=O)N[C@@H](C)C(=O)N1CCC[C@H]1C(=O)N1CCC[C@H]1C(=O)N1CCC[C@H]1C(=O)N[C@@H](CO)C(N)=O [Example 485],Ki,[1],0.3 nM
same,Emax,"hGIPR; HEK293, read-out: hGIPR Emax, % ± SEM, cAMP, 37° C., 0.1% bovine casein and 1.0% human serum albumin, percent of maximal response to GIP(1-42)NH2",93.8%
same,EC50,"hGIPR; hGIPR EC50, nM (SEM, n), cAMP, 37° C., 0.1% bovine casein (no human serum albumin)",0.0113 nM
same,EC50,"hGCGR; hGCGR EC50, nM (SEM, n), cAMP, 37° C., 0.1% bovine casein (no human serum albumin), geometric mean",> 10100 nM
same,EC50,"hGCGR; hGCGR EC50, nM (SEM, n), cAMP, 37° C., 0.1% bovine casein and 1.0% human serum albumin, geometric mean (SEM, n)",> 9950 nM
same,Emax,"hGLP-1R; HEK293, read-out: hGLP-1R Emax, % ± SEM, cAMP, 37° C., 0.1% bovine casein, percent of maximal response to GLP-1(7-36)NH2",115%
same,EC50,"hGLP-1R; hGLP-1R EC50, nM (SEM, n), cAMP, 37° C., 0.1% bovine casein (no human serum albumin)",0.153 nM
CCCCCCCCCCCCCCCC(=O)N[C@@H](CCC(=O)NCCOCCOCC(=O)NCCOCCOCC(=O)NCCCC[C@H](NC(=O)[C@H](CCCN)NC(=O)[C@H](CC(=O)O)NC(=O)[C@H](CC(C)C)NC(=O)[C@](C)(CC(C)C)NC(=O)[C@@H](NC(=O)[C@H](CO)NC(=O)[C@H](Cc1ccncc1)NC(=O)[C@H](CC(=O)O)NC(=O)[C@H](CO)NC(=O)[C@@H](NC(=O)[C@](C)(Cc1ccccc1F)NC(=O)[C@@H](NC(=O)CNC(=O)[C@H](CCC(=O)O)NC(=O)C(C)(C)NC(=O)[C@@H](N)Cc1ccc(O)cc1)[C@@H](C)O)[C@@H](C)O)[C@@H](C)CC)C(=O)N[C@@H](C)C(=O)N[C@@H](CCC(N)=O)C(=O)NC(C)(C)C(=O)N[C@@H](CCC(=O)O)C(=O)N[C@@H](Cc1ccccc1)C(=O)N[C@H](C(=O)N[C@@H](CCCCNC(=O)COCCOCCNC(=O)COCCOCCNC(=O)CC[C@H](NC(=O)CCCCCCCCCCCCCCC)C(=O)O)C(=O)N[C@@](C)(Cc1ccc(O)cc1)C(=O)N[C@@H](CC(C)C)C(=O)N[C@H](C(=O)N[C@@H](CCC(=O)O)C(=O)NCC(=O)NCC(=O)N1CCC[C@H]1C(=O)N[C@@H](CO)C(=O)N[C@@H](CO)C(=O)NCC(=O)N[C@@H](C)C(=O)N1CCC[C@H]1C(=O)N1CCC[C@H]1C(=O)N1CCC[C@H]1C(=O)N[C@@H](CO)C(N)=O)[C@@H](C)CC)[C@@H](C)CC)C(=O)O [Example 22],Ki,[1],0.301 nM
same,Emax,"hGIPR; HEK293, read-out: hGIPR Emax, % ± SEM, 0.1% bovine casein and 1.0% human serum albumin, 37° C., percent of maximal response to GIP(1-42)NH2",93.4 ± 0.775%
same,EC50,"hGIPR; hGIPR EC50, nM (SEM, n), 0.1% bovine casein and 1.0% human serum albumin, 37° C.",0.533 nM
same,EC50,"hGCGR; hGCGR EC50, nM (SEM, n), 0.1% bovine casein and 1.0% human serum albumin, 37° C., geometric mean",> 9950 nM
same,EC50,"hGCGR; hGCGR EC50, nM (SEM, n), cAMP, incubated at 37° C., 0.1% bovine casein (no human serum albumin), geometric mean",> 9950 nM
same,EC50,"hGLP-1R; hGLP-1R EC50, nM (SEM, n), 0.1% bovine casein and 1.0% human serum albumin, 37° C.",1.5 nM
CC[C@H](C)[C@H](NC(=O)[C@H](CC(C)C)NC(=O)[C@](C)(Cc1ccc(O)cc1)NC(=O)[C@@H](CCC(=O)O)NC(=O)[C@@H](NC(=O)[C@H](Cc1ccccc1)NC(=O)[C@H](CCC(=O)O)NC(=O)C(C)(C)NC(=O)[C@H](CCC(N)=O)NC(=O)[C@H](C)NC(=O)[C@H](CCCCNC(=O)COCCOCCNC(=O)COCCOCCNC(=O)CC[C@H](NC(=O)CCCCCCCCCCCCC(=O)O)C(=O)O)NC(=O)[C@H](CCCN)NC(=O)[C@H](CC(=O)O)NC(=O)[C@H](CC(C)C)NC(=O)[C@](C)(CC(C)C)NC(=O)[C@@H](NC(=O)[C@](C)(CO)NC(=O)[C@H](Cc1ccc(O)cc1)NC(=O)[C@H](CC(=O)O)NC(=O)[C@H](CO)NC(=O)[C@@H](NC(=O)[C@](C)(Cc1ccccc1F)NC(=O)[C@@H](NC(=O)CNC(=O)[C@H](CCC(=O)O)NC(=O)C(C)(C)NC(=O)[C@@H](N)Cc1ccc(O)cc1)[C@@H](C)O)[C@@H](C)O)[C@@H](C)CC)[C@@H](C)CC)C(=O)N[C@@H](CCC(=O)O)C(=O)NCC(=O)NCC(=O)N[C@@H](CCCCNC(=O)COCCOCCNC(=O)COCCOCCNC(=O)CC[C@H](NC(=O)CCCCCCCCCCCCC(=O)O)C(=O)O)C(=O)N[C@@H](CO)C(=O)N[C@@H](CO)C(=O)NCC(=O)N[C@@H](C)C(=O)N1CCC[C@H]1C(=O)N1CCC[C@H]1C(=O)N1CCC[C@H]1C(=O)N[C@@H](CO)C(N)=O [Example 49],Ki,[1]; [2],1.21 nM
same,Emax,"hGIPR; HEK293, 0.1% bovine casein and 1.0% human serum albumin, 37° C., percent of maximal response to GIP(1-42)NH2, read-out: hGIPR Emax, % ± SEM",92.4 ± 4.07%
same,Emax,"hGIPR; HEK293, percent of maximal response to GIP(1-42)NH2, 37° C., 0.1% bovine casein, arithmetic mean, read-out: hGIPR Emax, % ± SEM",91 ± 1.7%
same,EC50,"hGIPR; cAMP, incubated at 37° C., 0.1% bovine casein (no human serum albumin), read-out: hGIPR EC50, nM (SEM, n)",0.0205 nM
same,EC50,hGCGR; [3],> 9950 nM
same,EC50,hGCGR; [4],> 9950 nM
same,Emax,"hGLP-1R; HEK293, percent of maximal response to GLP-1(7-36)NH2, 37° C., 0.1% bovine casein, read-out: hGLP-1R Emax, % ± SEM",97.3 ± 5.46%
CCCCCCCCCCCCCCCC(=O)N[C@@H](CCC(=O)NCCOCCOCC(=O)NCCOCCOCC(=O)NCCCC[C@H](NC(=O)[C@H](CCCN)NC(=O)[C@H](CC(=O)O)NC(=O)[C@H](CC(C)C)NC(=O)[C@](C)(CC(C)C)NC(=O)[C@@H](NC(=O)[C@H](CO)NC(=O)[C@H](Cc1ccncc1)NC(=O)[C@H](CC(=O)O)NC(=O)[C@H](CO)NC(=O)[C@@H](NC(=O)[C@](C)(Cc1ccccc1F)NC(=O)[C@@H](NC(=O)CNC(=O)[C@H](CCC(=O)O)NC(=O)C(C)(C)NC(=O)[C@@H](N)Cc1ccc(O)cc1)[C@@H](C)O)[C@@H](C)O)[C@@H](C)CC)C(=O)N[C@@H](C)C(=O)N[C@@H](CCC(N)=O)C(=O)NC(C)(C)C(=O)N[C@@H](CCCCNC(=O)COCCOCCNC(=O)COCCOCCNC(=O)CC[C@H](NC(=O)CCCCCCCCCCCCCCC)C(=O)O)C(=O)N[C@@H](Cc1ccccc1)C(=O)N[C@H](C(=O)N[C@H](CCC(=O)O)C(=O)N[C@@](C)(Cc1ccc(O)cc1)C(=O)N[C@@H](CC(C)C)C(=O)N[C@H](C(=O)N[C@@H](CCC(=O)O)C(=O)NCC(=O)NCC(=O)N1CCC[C@H]1C(=O)N[C@@H](CO)C(=O)N[C@@H](CO)C(=O)NCC(=O)N[C@@H](C)C(=O)N1CCC[C@H]1C(=O)N1CCC[C@H]1C(=O)N1CCC[C@H]1C(=O)N[C@@H](CO)C(N)=O)[C@@H](C)CC)[C@@H](C)CC)C(=O)O [Example 21],Ki,[1]; [2],0.246 nM
same,EC50,"hGIPR; 0.1% bovine casein and 1.0% human serum albumin, 37° C., read-out: hGIPR EC50, nM (SEM, n)",0.302 nM
same,EC50,hGCGR; [3],> 9950 nM
same,EC50,hGCGR; [4],> 9950 nM
same,EC50,"hGLP-1R; 0.1% bovine casein and 1.0% human serum albumin, 37° C., read-out: hGLP-1R EC50, nM (SEM, n)",0.806 nM

# From patent US20230265151A1, “GIP/GLP1 CO-AGONIST COMPOUNDS” (priority 2020, published 2023)
